These results are taken from PubChem BioAssay (NCI).

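How tested: cells in 96-well plates exposed to compound for 48 hours at five concentrations. GI50 = concentration required for 50% inhibition of growth. At the TGI there is no net growth.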

Test systems include DLD-1 colon; XF 498 CNS; DMS 273 small cell lung; M19-MEL melanoma; HOP-18 NSCLC; RXF-631 renal; SNB-78 CNS; DMS 114 small cell lung; MDA-N; SN12K1 renal; P388 leukemia; P388/ADR leukemia.
Common to all, as to test: NCI tumour cell line growth inhibition, 48 h

Regarding `CC[O-].CC[O-].O=C1C=C([O-])C(=O)c2ccccc21.O=C1C=C([O-])C(=O)c2ccccc21.[Ti+4]`, the GI50 in the assay on DLD-1 colon was over 100 µM; in the assay with XF 498 CNS, over 100 µM; in the assay on DMS 273 small cell lung it was over 63.5 µM; in the assay on M19-MEL melanoma, 1.61 µM; in the assay with HOP-18 NSCLC, over 100 µM. Besides, the TGI in the assay on DLD-1 colon was over 100 µM; in the assay with XF 498 CNS, over 100 µM; with DMS 273 small cell lung it was over 100 µM; with M19-MEL melanoma, 3.81 µM; in the assay with HOP-18 NSCLC, over 100 µM.
As to `CCN(N=O)C1C2(CCCC2)NC(=O)C12CCCC2` (centres undefined), the TGI in the assay with RXF-631 renal, in the assay with DLD-1 colon, in the assay on SNB-78 CNS, in the assay with XF 498 CNS, with M19-MEL melanoma and with HOP-18 NSCLC was over 100 µM in each case. The molecule also gave a TGI in the assay with DMS 114 small cell lung of over 100 µM.
Regarding `COc1ccc(OC(=O)N2C/C(=C\c3ccccc3)C(=O)/C(=C/c3ccccc3)C2)cc1`, the TGI in the assay with DLD-1 colon is 5.29 µM; in the assay with SNB-78 CNS, 27.3 µM; with DMS 273 small cell lung, 6.28 µM; with M19-MEL melanoma it was 2.9 µM; with MDA-N, 3.47 µM; in the assay with HOP-18 NSCLC, 49.5 µM.
In turn, `CCCCCc1cc(/C=C2/N=C(c3ccc[nH]3)C=C2OC)[nH]c1C` gave a TGI in the assay on MDA-N of 0.155 µM.
On the same count and under the same terms, with `O=C1CCc2cc(Br)ccc2O1` the figure was over 100 µM.
On to `CCCCCCCCCCCCC(O)C1CCC(C(O)CCCCC(O)CCCCCC2CC(CC(C)=O)C(=O)O2)O1` (centres undefined), for which the TGI with RXF-631 renal was 16.7 µM; in the assay on DLD-1 colon it was 21 µM; in the assay on SNB-78 CNS, over 41 µM; in the assay with XF 498 CNS, 8.44 µM; in the assay with DMS 273 small cell lung it was 13 µM; with M19-MEL melanoma it was 12.5 µM. The TGI with MDA-N was found to be 4.81 µM; in the assay with HOP-18 NSCLC, 23.3 µM; with DMS 114 small cell lung, 7.78 µM.
As for `Cc1[nH]c(=O)n2c(C)nnc2c1C(=O)O`, the TGI in the assay with DLD-1 colon, in the assay on SNB-78 CNS, in the assay on XF 498 CNS, with M19-MEL melanoma and in the assay on DMS 114 small cell lung was over 100 µM each time.
Turning to `NNC(=O)/C(NC(=O)c1ccccc1)=C(\N)c1cccc([N+](=O)[O-])c1`, the TGI in the assay on RXF-631 renal, in the assay on DLD-1 colon, in the assay on SNB-78 CNS, in the assay on XF 498 CNS, in the assay with DMS 273 small cell lung and in the assay on M19-MEL melanoma was over 100 µM throughout. Moreover, the TGI in the assay on HOP-18 NSCLC and in the assay with DMS 114 small cell lung was over 100 µM each time.
In the case of `OC1(C(Sc2ccccc2)Sc2ccccc2)CCCCCC1`, the TGI in the assay with DLD-1 colon was over 100 µM; in the assay on SNB-78 CNS, over 100 µM; in the assay with XF 498 CNS, 35.7 µM; with DMS 273 small cell lung, 76.5 µM; with M19-MEL melanoma it was over 100 µM; in the assay with DMS 114 small cell lung, 68.9 µM.
On to `CC(=O)OC(C(=O)[O][Ge]([CH3])([CH3])[CH3])c1ccccc1` (centres undefined), for which the GI50 in the assay with DLD-1 colon, in the assay with SNB-78 CNS, with M19-MEL melanoma, with HOP-18 NSCLC and with DMS 114 small cell lung was over 100 µM in each case. Moreover, the TGI with DLD-1 colon, in the assay on SNB-78 CNS, with M19-MEL melanoma, in the assay with HOP-18 NSCLC and with DMS 114 small cell lung was over 100 µM in each case.
As to `COc1cc(-c2oc3c(OC)c(O)c(OC)c(O)c3c(=O)c2OC)cc(OC)c1OC`, the TGI in the assay on MDA-N is over 100 µM.
As for `CC1=C2CC[C@@]3(C)C(=CCC3O)C2(C)CCC1=O` (some centres undefined), the TGI in the assay with RXF-631 renal, in the assay on DLD-1 colon, in the assay on SNB-78 CNS, with DMS 273 small cell lung, in the assay on M19-MEL melanoma and in the assay with HOP-18 NSCLC was over 100 µM each time. Also, in the assay with DMS 114 small cell lung, the TGI is over 100 µM.
Consider `COc1ccc(C2=C(c3ccccc3)C(=O)N3CCCC3C2)cc1` (centres undefined), for which, in the assay with MDA-N, the GI50 is 0.441 µM and the TGI is over 100 µM.
With `CCOC(=O)CCc1c(C)c2c(OC)cc(OC)cc2oc1=O`, the TGI in the assay on DLD-1 colon was over 100 µM; in the assay on SNB-78 CNS, over 100 µM; in the assay with XF 498 CNS, 93.8 µM; in the assay on DMS 273 small cell lung it was over 100 µM; in the assay on M19-MEL melanoma, over 100 µM; with HOP-18 NSCLC it was 99 µM.
`CC(=O)Oc1ccc2c(=O)c(C(C)=O)coc2c1`: the TGI in the assay on SNB-78 CNS, in the assay with XF 498 CNS, in the assay on DMS 273 small cell lung and in the assay on M19-MEL melanoma was over 100 µM in each case.
Molecule `CNC(=O)/C=C/C1=CN2C(=O)c3ccc(C)c(O)c3NC(OC)C2C1` (centres undefined) displayed a TGI in the assay on MDA-N of under 0.0211 µM.
On to `CC(=O)OC1C(O)C(C)OC(OC2C(OC(=O)C3CCC4C(C3)OC3(CC(OC(=O)/C=C/c5ccccc5)C(C)CO3)C43CO3)OC(C)C(O)C2OC(C)=O)C1O` (centres undefined), for which the TGI in the assay on DLD-1 colon was over 1.5 µM; with XF 498 CNS, 0.0896 µM; with DMS 273 small cell lung it was 0.111 µM; in the assay with M19-MEL melanoma, 0.0665 µM; with MDA-N, 0.0182 µM; with SN12K1 renal, 0.0583 µM. For the same molecule, the TGI with HOP-18 NSCLC was 0.413 µM; with P388 leukemia it was 0.279 µM; in the assay on P388/ADR leukemia it was over 2.5 µM; in the assay on DMS 114 small cell lung it was 0.0727 µM.
With `OC1CC(O)O[C@H](c2ccccc2)C1` (some centres undefined), the TGI with DLD-1 colon, in the assay with SNB-78 CNS, with DMS 273 small cell lung, in the assay on M19-MEL melanoma and in the assay with HOP-18 NSCLC was over 100 µM throughout.
Turning to `O=C(CCN1CCCCC1)c1csc2ccccc12`, in the assay on MDA-N, the TGI was over 100 µM.
Molecule `O=C(O)CN1C(=O)OC(c2ccccc2)C1=O` (centres undefined) displayed a TGI in the assay with MDA-N of over 100 µM.
Take `CCOC(=O)C(C(=O)OCC)=C1C=C(c2ccccc2)c2ccccc21`: the TGI in the assay on DLD-1 colon, in the assay on SNB-78 CNS, in the assay with XF 498 CNS, with DMS 273 small cell lung, with M19-MEL melanoma and with DMS 114 small cell lung was over 100 µM in each case.
In the case of `O=C(c1ccccc1)n1cc(/C=C/[N+](=O)[O-])c2ccccc21`, the TGI in the assay on RXF-631 renal amounted to 48.2 µM; in the assay on DLD-1 colon it was 33.5 µM; in the assay on SNB-78 CNS, 79.9 µM; in the assay with XF 498 CNS it was 78.5 µM; in the assay on DMS 273 small cell lung it was 55.1 µM; in the assay with M19-MEL melanoma it was 38.9 µM. Further, the TGI was over 100 µM in the assay with HOP-18 NSCLC and 38 µM with DMS 114 small cell lung.
Take `CC(=O)OCc1nnn2c1C(OC(C)=O)CC2` (centres undefined): the TGI in the assay on RXF-631 renal, with DLD-1 colon, in the assay with SNB-78 CNS, in the assay on XF 498 CNS, in the assay on DMS 273 small cell lung and with M19-MEL melanoma was over 100 µM throughout. The molecule further displayed a TGI in the assay with DMS 114 small cell lung of over 100 µM.
As for `C[C@@H](NC1CCCC[C@@H]1O)c1ccccc1` (some centres undefined), the TGI in the assay with DLD-1 colon, in the assay on SNB-78 CNS, in the assay with XF 498 CNS, in the assay on DMS 273 small cell lung, with M19-MEL melanoma and in the assay with HOP-18 NSCLC was over 100 µM throughout.
`CCOC(=O)C#Cc1cccc(C#CC(=O)OCC)c1`: the TGI in the assay with MDA-N came to 6.44 µM.
